A short description of the series: Solubility of dexmedetomidine in adhesives and solubility enhancers. The class given is physicochemical.

In the case of `Cc1cccc([C@H](C)c2cnc[nH]2)c1C` [dexmedetomidine, Dexmedetomidine], the solubility of dexmedetomidine result reads like this: (in Duro-Tak 87-2979 (acid/hydroxyl functionalized acrylate adhesive)) “less than 2%”; (in Duro-Tak 387/87-2353 (acid functionalized acrylate adhesive)) 10-15%; (in hydroxyl functionalized acrylate polymer) “less than 1%”; (in lauryl lactate) 5 to 10%; (in levulinic acid) ~60%; (in oleic acid) ~40%. The solubility of dexmedetomidine (in propylene glycolmonolaurate) is 5 to 10%.

For the origin of these results see US20150098997A1, “Methods and Compositions for Treating Attention Deficit Hyperactivity Disorder, Anxiety and Insomnia Using Dexmedetomidine Transdermal Compositions” (Teikoku Pharma USA, Inc., priority 2013, published 2015).
